The values below come from US12275745B2, “Therapeutic compounds and methods of use” (Genentech, Inc., priority 2021, dated 2025).

In one experiment the target is TEAD1 (Homo sapiens, UniProt P28347). Description: TR-FRET (Lipid HTRF) TEAD lipid pocket probe displacement assay, TEAD1. The settings on record: His-tagged TEAD1, biotinylated lipid pocket probe, 4 hours. The class given is binding. (TR-FRET usually uses a lanthanide donor and a delayed reading to cut background.)
Another experiment addresses TEAD3 (Homo sapiens, UniProt Q99594). Description: TR-FRET (Lipid HTRF) TEAD lipid pocket probe displacement assay, TEAD3. The class given is binding. As to conditions: His-tagged TEAD3, biotinylated lipid pocket probe, 4 hours.
A further experiment addresses TEAD4 (Homo sapiens, UniProt Q15561). Description: TR-FRET (Lipid HTRF) TEAD lipid pocket probe displacement assay, TEAD4. It is filed as binding. The settings on record: His-tagged TEAD4, biotinylated lipid pocket probe, 4 hours.
Another experiment deals with TEAD2 (Homo sapiens, UniProt Q15562). Description: biochemical.
Chain of TEAD2 (Q15562 whole entry, species assumed): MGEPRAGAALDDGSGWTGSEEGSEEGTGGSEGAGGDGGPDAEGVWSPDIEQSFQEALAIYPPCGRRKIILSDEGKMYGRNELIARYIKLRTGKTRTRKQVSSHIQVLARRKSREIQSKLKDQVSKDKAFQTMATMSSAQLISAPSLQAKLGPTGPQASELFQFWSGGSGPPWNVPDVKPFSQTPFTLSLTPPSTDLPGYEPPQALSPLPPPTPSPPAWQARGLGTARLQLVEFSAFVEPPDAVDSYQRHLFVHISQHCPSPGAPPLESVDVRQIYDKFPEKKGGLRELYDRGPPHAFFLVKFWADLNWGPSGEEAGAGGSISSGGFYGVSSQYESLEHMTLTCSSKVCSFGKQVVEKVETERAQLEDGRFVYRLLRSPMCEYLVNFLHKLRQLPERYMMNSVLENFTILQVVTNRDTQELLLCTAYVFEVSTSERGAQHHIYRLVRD

pIC50: −log10 of the molar value.

Chain of TEAD3 (Q99594 whole entry, species assumed): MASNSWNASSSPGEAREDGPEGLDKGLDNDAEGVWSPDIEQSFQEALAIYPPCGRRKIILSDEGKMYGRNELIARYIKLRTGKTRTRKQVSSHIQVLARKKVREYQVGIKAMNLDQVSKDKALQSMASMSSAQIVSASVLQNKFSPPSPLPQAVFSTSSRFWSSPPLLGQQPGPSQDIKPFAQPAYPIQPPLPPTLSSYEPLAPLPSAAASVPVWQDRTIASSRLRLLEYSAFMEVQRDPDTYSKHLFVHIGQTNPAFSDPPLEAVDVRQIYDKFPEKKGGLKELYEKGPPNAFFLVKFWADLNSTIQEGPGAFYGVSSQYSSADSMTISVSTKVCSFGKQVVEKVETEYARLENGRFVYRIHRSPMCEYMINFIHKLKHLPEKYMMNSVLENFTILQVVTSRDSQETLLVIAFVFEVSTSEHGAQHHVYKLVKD
Chain of TEAD4 (Q15561 whole entry, species assumed): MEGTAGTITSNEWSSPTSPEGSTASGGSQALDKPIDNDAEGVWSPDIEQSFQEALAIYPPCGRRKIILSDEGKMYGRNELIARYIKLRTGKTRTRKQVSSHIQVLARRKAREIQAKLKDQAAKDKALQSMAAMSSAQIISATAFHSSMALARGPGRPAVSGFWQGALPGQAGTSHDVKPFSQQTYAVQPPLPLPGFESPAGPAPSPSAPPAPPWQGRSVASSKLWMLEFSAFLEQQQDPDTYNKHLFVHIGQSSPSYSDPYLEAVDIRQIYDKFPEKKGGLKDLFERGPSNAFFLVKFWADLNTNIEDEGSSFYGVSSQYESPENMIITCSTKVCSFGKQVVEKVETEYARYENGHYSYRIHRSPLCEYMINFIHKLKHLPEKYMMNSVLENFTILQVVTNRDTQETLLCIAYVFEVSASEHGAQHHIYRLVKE
Chain of TEAD1 (P28347 whole entry, species assumed): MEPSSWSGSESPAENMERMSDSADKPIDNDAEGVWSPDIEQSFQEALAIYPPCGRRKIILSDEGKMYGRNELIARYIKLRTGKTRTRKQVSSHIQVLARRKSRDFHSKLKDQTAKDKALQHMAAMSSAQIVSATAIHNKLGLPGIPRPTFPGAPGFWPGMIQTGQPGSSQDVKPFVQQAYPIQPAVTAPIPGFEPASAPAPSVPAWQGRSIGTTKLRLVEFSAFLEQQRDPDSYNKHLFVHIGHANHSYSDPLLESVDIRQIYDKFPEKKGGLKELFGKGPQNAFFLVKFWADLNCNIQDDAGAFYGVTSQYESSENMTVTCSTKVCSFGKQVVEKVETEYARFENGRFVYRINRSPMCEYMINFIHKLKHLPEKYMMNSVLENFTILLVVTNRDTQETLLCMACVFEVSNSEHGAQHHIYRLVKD
Procedure for TEAD2: (§1) His-tagged TEAD proteins are pre-incubated with TEAD project compounds for 30 minutes or 4 hours at room temperature. Biotinylated lipid pocket probes are then added to the TEAD/Compound mixture and incubated for 60 minutes at room temperature. The lipid pocket probe competes with the test compound for the TEAD lipid pocket until equilibrium is reached. After 60 minutes, Europium labelled anti-His (Perkin Elmer #AD0110) and XL665 labelled streptavidin (CIS Bio 610SAXAC) are added to the TEAD/test compound/lipid pocket mixture and incubated for 30 minutes or 4 hours. TR-FRET values are then measured using an EnVision multi-label plate reader (Perkin Elmer Cat #2104-001 0A.) If the lipid pocket probe binds to TEAD as expected, a TR-FRET signal results from the proximity of anti-His Eu and XL665. If a TEAD lipid pocket binder such as binds and displaces the lipid pocket probe, the disruption of the TEAD:probe interaction results in a decrease in TR-FRET signal. The potency of compounds as TEAD lipid pocket binders is determined by IC50 value generated using a non-linear 4 parameter curve fit.
Procedure for TEAD3: as §1
Procedure for TEAD4: as §1

As for `C=CC(=O)N(C)Cc1cc(-c2ccc(OC(F)(F)F)cc2)c2ncoc2c1[C@@H](O)CO` (single isomer, unassigned) [Compound 108], the negative logarithm of the IC50 (pIC50) on TEAD1 is 6.89; on TEAD3, 7.33; at TEAD4 it was 7.62; at TEAD2, 7.12.

`C=CC(=O)NCc1cc(-c2ccc(OC(F)(F)F)cc2)c2cccnc2c1[C@@H](O)CO` (single isomer, unassigned) [Compound 46]: the negative-log IC50 (pIC50) at TEAD1 is 7.66; on TEAD3 it was 7.10; at TEAD4 it was 6.90; against TEAD2, 8.21.

For `C=CC(=O)NCc1cc(-c2ccc(OC(F)(F)F)cc2)c2c(c1[C@@H](O)CC#N)CCO2` (single isomer, unassigned) [Compound 92], the negative-log IC50 (pIC50) at TEAD1 was 6.12; on TEAD3, 5.80; at TEAD4, 6.47; on TEAD2, 7.80.

For `C=C(F)C(=O)NCc1cc(-c2ccc(OC(F)(F)F)cc2)c2c(c1C#N)CCO2` [Compound 67, N-[[4-cyano-7-[4-(trifluoromethoxy)phenyl]-2,3-dihydrobenzofuran-5-yl]methyl]-2-fluoro-prop-2-enamide], the negative logarithm of the IC50 (pIC50) is 7.03 on TEAD1, 6.38 on TEAD3, 6.85 at TEAD4 and 6.47 on TEAD2.

`C=CC(=O)N(C)Cc1cc(-c2ccc(OC(F)(F)F)cc2)c2c(c1C#N)CCO2` [Compound 95, N-((4-cyano-7-(4-(trifluoromethoxy)phenyl)-2,3-dihydrobenzofuran-5-yl)methyl)-N-methylacrylamide]: the pIC50 on TEAD1 is 8.07; at TEAD3, 8.02; at TEAD4 it was 8.42; against TEAD2 it was 8.06.

With `C=CC(=O)NCc1cc(-c2ccc(OC(F)(F)F)cc2)c2nccnc2c1[C@H](C)O` (single isomer, unassigned) [Compound 83], the pIC50 is 7.36 at TEAD1, 6.72 on TEAD3, 7.02 on TEAD4 and 8.22 against TEAD2.

Consider `C=CC(=O)NCc1cc(-c2ccc(S(F)(F)(F)(F)F)cc2)c2c(c1[C@H](O)CO)CCO2` (stereo in doubt) [Compound 96, N-[[7-[4-(Pentafluoro-6-sulfanyl)phenyl]-4-[rac-(1R)-l,2-dihydroxyethyl]-2,3-dihydrobenzofuran-5-yl]methyl]prop-2-enamide], for which the negative-log IC50 (pIC50) at TEAD1 was 7.37; at TEAD3, 7.14; at TEAD4, 7.64; at TEAD2, 7.48.

In the case of `C=CC(=O)NCc1cc(-c2ccc(OC(F)(F)F)cc2)c2c(c1[C@@H](O)[C@@H](C)O)CCO2` (single isomer, unassigned) [Compound 90], the pIC50 at TEAD1 was 6.77; at TEAD3, 6.40; on TEAD4 it was 7.20; against TEAD2 it was 7.54.

Turning to `C=C(F)C(=O)N1CC(n2cc(-c3ccc(OC(F)(F)F)cc3)c3ncn(C)c3c2=O)C1` [Compound 136, 5-(1-(2-Fluoroacryloyl)azetidin-3-yl)-3-methyl-7-(4-(trifluoromethoxy)phenyl)-3,5-dihydro-4H-imidazo[4,5-c]pyridin-4-one], the pIC50 was 7.74 at TEAD1, 7.33 on TEAD3, 7.92 at TEAD4 and 7.52 on TEAD2.

With `C=CC(=O)N(C)Cc1nc(-c2ccc(OC(F)(F)F)cc2)c2ncsc2n1` [Compound 11, N-methyl-N-[[7-[4-(trifluoromethoxy)phenyl]thiazolo[5,4-d]pyrimidin-5-yl]methyl]prop-2-enamide], the negative-log IC50 (pIC50) on TEAD1 is 7.11; at TEAD3 it was 7.13; on TEAD4, 8.09; against TEAD2, 7.00.

In the case of `C=C(F)C(=O)NCc1cc(-c2ccc(OC(F)(F)F)cc2)c2nccnc2c1[C@@H](O)CO` [Compound 80, (R)-N-((5-(1,2-Dihydroxyethyl)-8-(4-(trifluoromethoxy)phenyl)quinoxalin-6-yl)methyl)-2-fluoroacrylamide], the pIC50 at TEAD1 was 6.89; on TEAD3 it was 6.08; on TEAD4, 6.13; against TEAD2 it was 6.96.

`C=CC(=O)NCc1cc(-c2ccc(OC(F)(F)F)cc2)c2nccn2c1CC` [Compound 26, N-((5-ethyl-8-(4-(trifluoromethoxy)phenyl)imidazo[1,2-a]pyridin-6-yl)methyl)acrylamide]: the negative-log IC50 (pIC50) at TEAD1 was 6.85; at TEAD3, 6.29; on TEAD4 it was 6.74; against TEAD2, 7.21.

On to `C=CC(=O)NCc1cc(-c2ccc(OC(F)(F)F)cc2)c2cccnc2c1CO` [Compound 44, N-[[8-(hydroxymethyl)-5-[4-(trifluoromethoxy)phenyl]-7-quinolyl]methyl]prop-2-enamide], for which the pIC50 on TEAD1 is 7.96; on TEAD3, 7.74; on TEAD4, 7.27; against TEAD2 it was 7.80.

On to `C=CC(=O)NCc1cc(-c2ccc(S(F)(F)(F)(F)F)cc2)c2c(c1[C@@H](O)CO)CCO2` (stereo in doubt) [Compound 97, N-[[7-[4-(pentafluoro-6-sulfanyl)phenyl]-4-[rac-(1S)-1,2-dihydroxyethyl]-2,3-dihydrobenzofuran-5-yl]methyl]prop-2-enamide], for which the pIC50 is 7.57 on TEAD1, 6.23 at TEAD3, 7.74 on TEAD4 and 7.72 at TEAD2.

With `O=C(NCc1cc(-c2ccc(OC(F)(F)F)cc2)c2nccnc2c1[C@@H](O)CO)C1=CCC1` [Compound 81, (R)-N-((5-(1,2-Dihydroxyethyl)-8-(4-(trifluoromethoxy)phenyl)quinoxalin-6-yl)methyl)cyclobut-1-ene-1-carboxamide], the pIC50 on TEAD1 was 7.51; at TEAD3, 6.66; on TEAD4, 7.89; against TEAD2, 7.68.

As to `C=CC(=O)NCc1nc(-c2ccc(OC(F)(F)F)cc2)nc2c1ncn2C` [Compound 133, N-((9-Methyl-2-(4-(trifluoromethoxy)phenyl)-9H-purin-6-yl)methyl)acrylamide], the negative logarithm of the IC50 (pIC50) at TEAD1 is 7.28; on TEAD3 it was 6.38; on TEAD4 it was 7.55; on TEAD2, 6.44.

Consider `C=CC(=O)NCc1cc(-c2ccc(OC(F)(F)F)cc2)c2nccn2c1CO` [Compound 5, N-((5-(hydroxymethyl)-8-(4-(trifluoromethoxy)phenyl)imidazo[1,2-a]pyridin-6-yl)methyl)acrylamide], for which the negative-log IC50 (pIC50) at TEAD1 was 6.90; at TEAD3 it was 6.54; on TEAD4, 6.57; against TEAD2, 6.64.

Regarding `C=CC(=O)NCc1nc(N2CCC(OC(F)(F)F)CC2)c2ncn(C)c2n1` [Compound 131, N-((9-Methyl-6-(4-(trifluoromethoxy)piperidin-1-yl)-9H-purin-2-yl)methyl)acrylamide], the pIC50 at TEAD1 was 6.40; on TEAD3, 5.92; on TEAD4 it was 7.09; on TEAD2 it was 5.80.

For `C=CC(=O)N(C)Cc1cc(-c2ccc(OC(F)(F)F)cc2)c2ncccc2c1[C@H](O)CO` (single isomer, unassigned) [Compound 51], the pIC50 at TEAD1 was 7.72; at TEAD3, 6.96; at TEAD4, 7.70; against TEAD2, 7.92.

With `C=CC(=O)N(C)CCc1cc(-c2ccc(OC(F)(F)F)cc2)c2ncn(C)c2c1C#N` [Compound 144, N-(2-(7-Cyano-1-methyl-4-(4-(trifluoromethoxy)phenyl)-1H-benzo[d]imidazol-6-yl)ethyl)-N-methylacrylamide], the negative-log IC50 (pIC50) is 7.03 at TEAD1, 5.89 at TEAD3, 7.64 at TEAD4 and 7.41 on TEAD2.

Take `C=C(F)C(=O)N1CC(n2cc(-c3ccc(OC(F)(F)F)cc3)c3nccnc3c2=O)C1` [Compound 134, 6-(1-(2-Fluoroacryloyl)azetidin-3-yl)-8-(4-(trifluoromethoxy)phenyl)pyrido[3,4-b]pyrazin-5(6H)-one]: the negative-log IC50 (pIC50) at TEAD1 was 6.70; at TEAD3, 6.51; at TEAD4, 6.19; on TEAD2, 5.77.

Regarding `C=CC(=O)NCc1cc(-c2ccc(OC(F)(F)F)cc2)c2ncccc2c1[C@@H](O)CO` (single isomer, unassigned) [Compound 48], the pIC50 at TEAD1 is 7.66; on TEAD3 it was 5.99; on TEAD4, 6.84; at TEAD2, 7.84.

For the compound `CN(Cc1cc(-c2ccc(OC(F)(F)F)cc2)c2ncn(C)c2c1CO)C(=O)/C=C/CO` [Compound 64, (E)-4-hydroxy-N-[[4-(hydroxymethyl)-3-methyl-7-[4-(trifluoromethoxy)phenyl]benzimidazol-5-yl]methyl]-N-methyl-but-2-enamide], the pIC50 at TEAD1 is 6.57; on TEAD3, 6.15; at TEAD4 it was 7.36; on TEAD2 it was 6.29.

On to `C=CC(=O)NCc1cc(-c2ccc(C(F)(F)F)cc2)c2ncoc2c1[C@H](O)CO` (single isomer, unassigned) [Compound 109], for which the pIC50 at TEAD1 is 6.82; on TEAD3 it was 7.15; on TEAD4, 6.77; against TEAD2, 7.24.

On to `C=CC(=O)NCc1cc(-c2ccc(OC(F)(F)F)cc2)c2ncccc2c1C#N` [Compound 16, N-[[5-cyano-8-[4-(trifluoromethoxy)phenyl]-6-quinolyl]methyl]prop-2-enamide], for which the pIC50 on TEAD1 is 7.62; at TEAD3, 7.43; on TEAD4, 7.43; at TEAD2, 7.29.

For `C=CC(=O)NCc1cc(-c2ccc(OC(F)(F)F)cc2)c2nccnc2c1[C@@H](C)O` (single isomer, unassigned) [Compound 82], the negative logarithm of the IC50 (pIC50) was 7.16 on TEAD1, 5.74 at TEAD3, 6.62 at TEAD4 and 7.82 against TEAD2.

The pIC50 is the negative decadic logarithm of the IC50, by convention in mol/L. High values mean a low IC50, low ones a high IC50.
